System: 422866-222-R5-J1-PDC complex spheroids viability
Experiment: Anticancer human tumor 422866-222-R5-J1-PDC patient-derived pancreatic adenocarcinoma cell line growth inhibition [RAS]
Settings: for IC50: curve of first compound; for viability, T/C: stronger effect = lower value
Outline: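 Multi-cell-type spheroids: tumor cells plus HUVEC endothelial cells and mesenchymal stem cells. RAS-pathway inhibitors were combined with targeted agents, each dosed in half-log steps down from clinical Cmax, or from 10 microM when Cmax was unknown.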

[1] = second compound 0.0316 µM, first compound 0.0316 µM
[2] = second compound 0.0316 µM, first compound 0.1 µM
[3] = second compound 0.0316 µM, first compound 0.316 µM
[4] = second compound 0.0316 µM, first compound 1 µM
[5] = second compound 0.1 µM, first compound 0.0316 µM
[6] = second compound 0.1 µM, first compound 0.1 µM
[7] = second compound 0.1 µM, first compound 0.316 µM
[8] = second compound 0.1 µM, first compound 1 µM
[9] = second compound 0.316 µM, first compound 0.0316 µM
[10] = second compound 0.316 µM, first compound 0.1 µM
[11] = second compound 0.316 µM, first compound 0.316 µM
[12] = second compound 0.316 µM, first compound 1 µM
[13] = second compound 1 µM, first compound 0.0316 µM
[14] = second compound 1 µM, first compound 0.1 µM
[15] = second compound 1 µM, first compound 0.316 µM
[16] = second compound 1 µM, first compound 1 µM
[17] = second compound 3.16 µM, first compound 0.0316 µM
[18] = second compound 3.16 µM, first compound 0.1 µM
[19] = second compound 3.16 µM, first compound 0.316 µM
[20] = second compound 3.16 µM, first compound 1 µM
[21] = second compound 10 µM, first compound 0.0316 µM
[22] = second compound 10 µM, first compound 0.1 µM
[23] = second compound 10 µM, first compound 0.316 µM
[24] = second compound 10 µM, first compound 1 µM
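Note: spheroids exposed to compounds for 7 days.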
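Throughout, for viability, T/C: 100% = DMSO vehicle control viability.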

CC(=O)OC12COC1CC(O)C1(C)C(=O)C(O)C3=C(C)C(OC(=O)C(O)C(NC(=O)OC(C)(C)C)c4ccccc4)CC(O)(C(OC(=O)c4ccccc4)C21)C3(C)C (centres undefined) + C#Cc1c(F)ccc2cc(O)cc(-c3ncc4c(N5CC6CCC(C5)N6)nc(OCC56CCCN5CC(F)C6)nc4c3F)c12
IC50 (second compound 0.0316 µM): > 10000 nM
IC50 (second compound 0.1 µM): > 10000 nM
IC50 (second compound 0.316 µM): 31.6 nM
IC50 (second compound 1 µM): < 31.6 nM
IC50 (second compound 3.16 µM): < 31.6 nM
IC50 (second compound 10 µM): < 31.6 nM
viability, T/C [1]: 55.1%
viability, T/C [2]: 74.1%
viability, T/C [3]: 77%
viability, T/C [4]: 83.1%
viability, T/C (second compound 0.0316 µM, first compound 3.16 µM): 76.5%
viability, T/C (second compound 0.0316 µM, first compound 10 µM): 69.7%
viability, T/C [5]: 70.7%
viability, T/C [6]: 61.3%
viability, T/C [7]: 56.5%
viability, T/C [8]: 65.5%
viability, T/C (second compound 0.1 µM, first compound 3.16 µM): 64.1%
viability, T/C (second compound 0.1 µM, first compound 10 µM): 61.7%
viability, T/C [9]: 55.7%
viability, T/C [10]: 48.2%
viability, T/C [11]: 46.6%
viability, T/C [12]: 56.8%
viability, T/C (second compound 0.316 µM, first compound 3.16 µM): 67.4%
viability, T/C (second compound 0.316 µM, first compound 10 µM): 55.1%
viability, T/C [13]: 34%
viability, T/C [14]: 33.1%
viability, T/C [15]: 37.5%
viability, T/C [16]: 36.5%
viability, T/C (second compound 1 µM, first compound 3.16 µM): 41%
viability, T/C (second compound 1 µM, first compound 10 µM): 35.4%
viability, T/C [17]: 21.2%
viability, T/C [18]: 27.4%
viability, T/C [19]: 29.6%
viability, T/C [20]: 29.6%
viability, T/C (second compound 3.16 µM, first compound 3.16 µM): 32%
viability, T/C (second compound 3.16 µM, first compound 10 µM): 29.5%
viability, T/C [21]: 23.1%
viability, T/C [22]: 22.2%
viability, T/C [23]: 22.2%
viability, T/C [24]: 20.9%
viability, T/C (second compound 10 µM, first compound 3.16 µM): 24.1%
viability, T/C (second compound 10 µM, first compound 10 µM): 22.9%

Nc1ccn(C2OC(CO)C(O)C2(F)F)c(=O)n1 (centres undefined) + C#Cc1c(F)ccc2cc(O)cc(-c3ncc4c(N5CC6CCC(C5)N6)nc(OCC56CCCN5CC(F)C6)nc4c3F)c12
IC50 (second compound 0.0316 µM): 113 nM
IC50 (second compound 0.1 µM): 29.2 nM
IC50 (second compound 0.316 µM): 15.9 nM
IC50 (second compound 1 µM): < 3.16 nM
IC50 (second compound 3.16 µM): < 3.16 nM
IC50 (second compound 10 µM): < 3.16 nM
viability, T/C (second compound 0.0316 µM, first compound 0.00316 µM): 90.8%
viability, T/C (second compound 0.0316 µM, first compound 0.01 µM): 84.9%
viability, T/C [1]: 65.7%
viability, T/C [2]: 51.1%
viability, T/C [3]: 42.1%
viability, T/C [4]: 34.1%
viability, T/C (second compound 0.1 µM, first compound 0.00316 µM): 108%
viability, T/C (second compound 0.1 µM, first compound 0.01 µM): 65.6%
viability, T/C [5]: 52.4%
viability, T/C [6]: 37.6%
viability, T/C [7]: 39.6%
viability, T/C [8]: 38.5%
viability, T/C (second compound 0.316 µM, first compound 0.00316 µM): 63.9%
viability, T/C (second compound 0.316 µM, first compound 0.01 µM): 49.8%
viability, T/C [9]: 48.8%
viability, T/C [10]: 45.6%
viability, T/C [11]: 38.1%
viability, T/C [12]: 41.9%
viability, T/C (second compound 1 µM, first compound 0.00316 µM): 41.2%
viability, T/C (second compound 1 µM, first compound 0.01 µM): 41.3%
viability, T/C [13]: 32.4%
viability, T/C [14]: 35.9%
viability, T/C [15]: 33.3%
viability, T/C [16]: 25.5%
viability, T/C (second compound 3.16 µM, first compound 0.00316 µM): 25.8%
viability, T/C (second compound 3.16 µM, first compound 0.01 µM): 29.7%
viability, T/C [17]: 24.5%
viability, T/C [18]: 27.7%
viability, T/C [19]: 23.4%
viability, T/C [20]: 23%
viability, T/C (second compound 10 µM, first compound 0.00316 µM): 24.8%
viability, T/C (second compound 10 µM, first compound 0.01 µM): 26.2%
viability, T/C [21]: 23.3%
viability, T/C [22]: 19.8%
viability, T/C [23]: 21.6%
viability, T/C [24]: 17.8%
